Data published in paper PMC4610172, “5-Arylaminouracil Derivatives as Potential Dual-Action Agents” (Acta Naturae, 2015).

Columns and labels:
[1] = tested on: Mycobacterium tuberculosis; design: method as in PMID 26061192; conditions: cited from earlier work
MT-4 cell line = experiment: Cytotoxicity in vitro in MT-4 cells (propidium iodide uptake, automatic cell counter); type: cell-based; conditions: highest concentration tested
Experimental: We tested the compounds for potential cytotoxicity in the MT-4 cell line using an automatic cell counter (ChemoMetec). The number of live and dead cells was counted in the control cultures, and the cultures were treated with compound (6), (7), or (19). Compounds (6) and (7) were tested at concentrations of 0.136–33 μM (0.035–9 μg/mL), and compound (19) was tested at concentrations of 0.272–66 μM (0.119–28 μg/mL).
We discriminated live from dead cells by evaluating propidium iodide uptake according to the manufacturer’s instructions. We collected and analyzed data using the Nucleoview software (version 1.0,ChemoMetec).

human tonsillar tissue = experiment: Toxicity ex vivo in human tonsillar tissue (flow cytometry of cell phenotypes); type: cell-based; conditions: 12 days culture
Experimental: The cytotoxicity of compounds (6), (7), and (19) was determined in human tonsillar tissues. A total of 27 tissue blocks were incubated with compound (19) (20 μg/mL) or with compound (6) or (7) ( 5 μg/mL) for each experimental point. Tissue blocks were cultured for 12 days. Then, the cells were isolated from the control and treated and stained with combinations of fluorescence- labeled antibodies against CD3-QD605, CD4- QD655, CD8-QD705, CD25-APC, CD38-PE, HLA-DRAPC- Cy7, CXCR4-Brilliant violet 421, CCR5-PR-Cy5 CD45RA-FITC, and CCR7-PE-Cy7 (Caltag Laboratories; Biolegend). We determined the numbers of cells of different phenotypes in isolated suspensions using flow cytometry as previously described. The volume of an analyzed suspension was controlled by means of Trucount beads (Becton Dickinson); the number of counted cells was normalized to the weight of the tissue fragments used for cell isolation.

[2] = molecular target: T1, HIV-1 reverse transcriptase (p66/p51 heterodimer) (Human immunodeficiency virus type 1 group M subtype B, UniProt P04585); experiment: Inhibition of recombinant HIV-1 reverse transcriptase (Dixon's method, noncompetitive); type: biochemical; conditions: Dixon's method for noncompetitive inhibitors; read-out: Ki (inhibition constant)
T1 construct: recombinant HIV-1 reverse transcriptase (p66/p51 heterodimer); made in house
Experimental: Isolation of recombinant HIV-1 reverse transcriptase (p66/p51 heterodimer) and determination of its activity were performed as described earlier. The inhibition constant (Ki), calculated according to Dixon’s method for noncompetitive inhibitors, was used as a quantitative measure of the inhibitory activity of the compounds. Nevirapine, a first-generation HIV NNRTI, was used as a control.

SMILES	Concentration of total inhibition of mycobacterium growth [1] [µg/mL]	Maximum concentration at which neither cytotoxic nor cytostatic effect was observed (MT-4 cell line) [µM]	Ki [2] [µM]	also measured
Cc1cccc(Nc2c[nH]c(=O)[nH]c2=O)c1 [Compound 2]	5 to 40			
Cc1ccc(Nc2c[nH]c(=O)[nH]c2=O)cc1 [Compound 3]	5 to 40			
CCCCc1ccc(Nc2c[nH]c(=O)[nH]c2=O)cc1 [Compound 6]	5 to 40	≥ 33		Cytotoxicity on different cell types in the tissue (T, B, CD4+, CD8+ and CD4+ subgroups) (human tonsillar tissue; 5 μg/mL): lack of significant death rates
CCCCOc1ccc(Nc2c[nH]c(=O)[nH]c2=O)cc1 [Compound 7]	5 to 40	≥ 33		Cytotoxicity on different cell types in the tissue (T, B, CD4+, CD8+ and CD4+ subgroups) (human tonsillar tissue; 5 μg/mL): lack of significant death rates
CCCCc1ccc(Nc2n[nH]c(=O)[nH]c2=O)cc1 [Compound 10]	5 to 40			
O=c1[nH]c(=O)n(C2C=CC(O)C2)cc1Nc1ccc(Oc2ccccc2)cc1 (stereo not drawn) [Compound 15]			119	
CCCCOc1ccc(Nc2cn(C3C=CC(O)C3)c(=O)n(C3C=CC(O)C3)c2=O)cc1 (stereo not drawn) [Compound 19]	5 to 40	≥ 66		Cytotoxicity on different cell types in the tissue (T, B, CD4+, CD8+ and CD4+ subgroups) (human tonsillar tissue; 20 μg/mL): lack of significant death rates
O=c1c(Nc2ccccc2)cn(C2C=CC(O)C2)c(=O)n1Cc1ccccc1 (stereo not drawn) [Compound 21, 1-(4’-Hydroxy-2’-cyclopenten-1’-yl)-3-benzyl-5-(phenylamino) uracil]			> 100	
Cc1ccc(Nc2cn(C3C=CC(O)C3)c(=O)n(Cc3ccccc3)c2=O)cc1 (stereo not drawn) [Compound 22, 1-(4’-Hydroxy-2’-cyclopenten-1’-yl)-3-benzyl-5-(p-methylphenylamino) uracil]			60	
